Results on two molecules are retold here after article PMC4015918, “Conjugation to a SMAC mimetic potentiates sigma-2 ligand induced tumor cell death in ovarian cancer” (Molecular Cancer, 2014).

Entries after “also recorded” stand apart in the source; their conditions may differ.

For experiment [1], the system named is mouse 66 (mammary carcinoma) or MDA-MB-435 cells (human melanoma). Further details: method as in PMID 22201533. The settings on record: nude mice bearing mouse 66 or MDA-MB-435 tumors; cited from earlier work.
In experiment [2] the test system is SKOV3 cells. The experiment in a line: Blocking study: competition with uptake of fluorescent sigma-2 ligand SW120, flow cytometry. The format is cell-based. The conditions noted are these: SKOV3 cells pretreated 30 min with increasing concentrations, then 10 nM SW120 for 30 min. The procedure:
Figure 1 Compound structures and cell binding characteristics of SW IV-134. (A) The chemical structures of sigma-2 ligand SW43, the SMAC peptidomimetic SW IV-52, and the chemical conjugate SW IV-134. Note that the chirality of SW IV-52 is fully retained in the drug conjugate (asterisks). […] SKOV3 cells were pretreated with increasing concentration of SW IV-134, followed by incubation with SW120, prior to analysis by flow cytometry.
SKOV3 cells (3 × 10^4/well) were seeded into 6 cm plates for 24 hours before treatment. The cells were incubated with 5, 10, 50, and 100 μM doses of SW IV-134 for 30 minutes at 37°C. After this step, 10 nM SW120 was added to the cell culture medium containing SW IV-134. After 30 minute incubation at 37°C, cells were washed twice with phosphate buffered saline (PBS) and harvested with 0.05% trypsin EDTA (Life Technologies, Grand Island, NY). The cells were centrifuged at 1000 × g for 5 minutes and pellets washed twice with PBS. Internalization of SW120 was determined by flow cytometer (FACSCalibur, BD Biosciences, San Jose, CA).
Supplementary file 1476-4598-13-50-S2.pdf: Additional file 2: Figure S1 Receptor binding characteristics of the individual components of SW IV-134. SKOV3 cells were pretreated with increasing concentration of (A) SW43 and (B) SW IV-52, followed by incubation with SW120, prior to analysis by flow cytometry. […] Click here for file

In experiment [3] the test system is ovarian cancer cell lines (SKOV3, OVCAR3, HEY A8, HEY A8 MDR). The experiment in a line: Cell viability (CellTiter-Glo) in a panel of four ovarian cancer cell lines. The format is cell-based. The settings on record: increasing doses, 18 hours. As to the method:
(A) SKOV3, (B) OVCAR3 (C) HEY A8 and (D) HEY A8 MDR cells were treated with increasing doses of SW43, SW IV-52, SW43 plus SW IV-52, and SW IV-134 for 18 hours. Cell viability was determined by CellTiter-Glo assays [p < 0.015 (A), NS (B), p < 0.017 (C), p < 0.034 (D), one-way ANOVA].
Cells (1 × 10^4) were seeded into 96 well plates. Treatment as described in the figure legends was initiated the following day. Cell viability was determined 18 hours after treatment using CellTiter-Glo Luminiscent Viability Assay (Promega, Madison, WI). Data were recorded with a SpectraMax Gemini microplate spectrofluorometer, Molecular Devices (Silicon Valley, CA).

As for `COc1ccc(C)cc1NC(=O)OC1CC2CCCC(C1)N2CCCCCCCCCCNc1ccc([N+](=O)[O-])c2nonc12` (stereo not drawn) [SW120], in experiment [1], the “Tumor-selective uptake of SW120 in vivo” value is “taken up selectively by proliferating tumor cells and not by the generally quiescent peripheral blood mononuclear cells”.

For `CN[C@@H](C)C(=O)N[C@H](C(=O)N1CCC[C@H]1C(=O)N[C@@H]1CCCc2ccccc21)C(C)(C)C` [SW IV-52], the “Blocking of SW120 uptake” value in experiment [2] is listed as “nearly incapable of blocking the uptake of SW120; also recorded: nearly incapable of interfering with the uptake of SW120”. Also, the “Killing activity (cell viability)” value in experiment [3] is listed as “minimal single-agent activity at concentrations up to 200 μM”.
